Experimental data: article PMC7031302, “Design and synthesis of new energy restriction mimetic agents: Potent anti-tumor activities of hybrid motifs of aminothiazoles and coumarins” (Scientific Reports, 2020)
Read-outs that look alike come from different tables or passages of the source.

Columns and labels:
Type in all cases: cell-based, Human
HCT116 [1] = assay: Glucose uptake assay, HCT116; conditions: HCT116, 16 h treatment, dose-dependent
Text: (§1) According to previous studies, ERMAs inhibited glucose utilization in cancer cells[13],[19]. Therefore, we investigated glucose uptake (Fig. 5A) upon treatment with 9b and 9f in HT-29 and HCT116 cells at different concentrations based on the IC50 of each compound. […] This effect is known to result in the accumulation of reactive oxygen species (ROS) and could play a role in glucose deprivation-induced cytotoxicity and oxidative stress in cancer cells. […] The observed increase in ROS levels could lead to oxidative stress and extensive cell death in the absence of NADPH detoxification.
CRC cells (1 × 10^4) were seeded into a 96-well plate overnight. Cells were treated with test compounds or vehicle (negative control) glucose-free RPMI-1640 medium for 16 h; then, the cells were incubated with 2 mM 2-DG for 10 minutes. Eventually, glucose uptake of cells was measured using Glucose Uptake-Glo Assay (Promega, Madison, WI, USA) according to the manufacturer’s instructions. Luminescence was measured post 2 h of incubation at room temperature using Varioskan Flash multimode reader (Thermo Scientific). Glucose uptake was normalized to the total protein content in the samples using DC protein assay kit (Bio-Rad, Hercules, CA, USA).

CRC cells = assay: NADPH/NADP+ assay; conditions: 48 h treatment
Text: as §1
(§2) NADPH/NADP+ and ROS concentrations were measured using the NADP/NADPH-Glo Assay Kit (Promega, Madison, WI, USA) and ROS-Glo H2O2 Assay (Promega, Madison, WI, USA), respectively, based on the manufacturer instructions. In NADPH/NADP+ assay, CRC cells were seeded into a 96-well flat-bottomed plate and incubated overnight. On the following day, cells were treated with the testing compound or vehicle for 48 h. At the endpoint of treatment, the media were aspirated and replaced with 60 µl PBS/well, then cells were lysed in 60 µl base solution with 1% dodecyl (trimethyl) ammonium bromide (Sigma-Aldrich-St. Louis, MO, USA). […] Luminescence was measured after 30 minutes using Varioskan Flash multimode reader (Thermo Scientific). […] Luminescence was measured after 20 min incubation at room temperature.

[2] = test system: colorectal cancer cell lines, HCT116 and HT-29; assay: MTT cell viability, colorectal cancer cell lines (summary statements); conditions: for anticancer activities in initial screening, in words: HT-29 and HCT116 cancer cell lines
Description: (§3) The potential cytotoxicity of 24 candidate compounds was initially evaluated at a single concentration level (5 μM). Then a full dose-response curve was plotted for each compound against different colorectal cancer cell lines (HCT116 and HT-29) by MTT assay after 72 h treatments. 4-hydroxycoumarin, OSU-CG5, and OSU-CG12 were used as positive controls. […] Compounds 9b, 9c, 9f, 9i, 11b, and 11c were selected for further studies to determine the full dose-response survival curves using different concentrations (0.1–20 µM) against CRC cell lines and normal fibroblast cell line (F180) at different time points (Fig. 2A–2F and supplementary material Page S63 and S64).
(§4) Human colorectal carcinoma cell lines (HCT116) and (HT-29) were obtained from the European Collection of Cell Cultures (ECACC, UK). The cell lines were cultured in Roswell Park Memorial Institute medium (RPMI-1640, Sigma-Aldrich-St. Louis, MO, USA) supplemented with 10% fetal bovine serum (Sigma-Aldrich-St. Louis, MO, USA) and 1% penicillin/streptomycin (Sigma-Aldrich- Louis, MO, USA). F180 cell line (Human Normal Fibroblast), was kindly given by professor Ekkehard Dikomey (University Cancer Center, Hamburg University, Hamburg, Germany) and were cultured in Dulbecco’s Modified Eagle’s medium (DMEM, Sigma-Aldrich-St. Louis, MO, USA) supplemented with 10% fetal bovine serum (Sigma-Aldrich-St. Louis, MO, USA) and 1% penicillin/streptomycin (Sigma-Aldrich- Louis, MO, USA). All cell incubations were done at 37 °C in a humidified atmosphere of 5% CO2.
(§5) Cell viability was assessed using, 3-(4,5-dimethylthiazol-2-yl)-2,5-diphenyltetrazolium bromide (MTT) assay as previously described. In summary, cancer cell lines or F180 were seeded in complete medium at the density of 3 × 10^3/well and 5 × 10^3/well respectively in 96 well flat-bottom plates. After 24 h, cells were incubated with the candidate compounds at the indicated concentration for (24, 48 or 72 h). DMSO was used as vehicle control and 4-Hydroxycoumarin was purchased from (Sigma-Aldrich, St. Louis, MO, USA) and Cisplatin from Hospira UK Ltd. At the end of treatment, the media were aspirated from each well and incubated with 200 µL of MTT tetrazolium dye (Sigma-Aldrich, St. Louis, MO, USA) at a final concentration of 0.5 mg/ml for 2 h at 37 °C. The reduced MTT crystals were solubilized in 200 µl/well of DMSO and the absorbance was measured at 570 nm using a microplate reader (Thermo-Scientific, Vantaa, Finland).

HCT116 [3] = assay: ROS-Glo H2O2 assay, HCT116; conditions: HCT116, 6 h incubation
Text: as §1, §2

HT-29 = assay: MTT cell viability, HT-29; conditions: 72 h, MTT assay, mean ± SD (n = 6), read-out: half-maximal inhibitory concentration (IC50) HT-29
Description: as §3, §4, §5

| IC50 ([2]; both cell lines, summary statement) [nM] | IC50 (HT-29) [nM] | IC50 (HT-29; Homo sapiens, HT-29, 72 h) [nM] | Structure (SMILES) | glucose uptake (HCT116 [1]) | NADPH/NADP+ ratio (CRC cells) | anticancer activities in initial screening, in words [2] | generation of hydrogen peroxide (H2O2) and ROS (HCT116 [3]) |
| --- | --- | --- | --- | --- | --- | --- | --- |
| < 600 | 380 ± 44 | 530 | Cc1cc(=O)oc2cc(Nc3nc(-c4ccc(Br)cc4)cs3)ccc12 [Compound 9b, 7-(4-(4-Bromophenyl)thiazol-2-ylamino)-4-methyl-2H-chromen-2-one] | inhibited significantly | significant decrease | significant anticancer activities | significantly increased |
|  | 3960 ± 506 | 2560 | Cc1cc(=O)oc2cc(Nc3nc(-c4cccc([N+](=O)[O-])c4)cs3)ccc12 [Compound 9f, 4-Methyl-7-(4-(3-Nitrophenyl)thiazol-2-ylamino)-2H-chromen-2-one] | inhibited significantly | significant decrease | significant anticancer activities | significantly increased |
